Data: patent publication US20080113347A1, “Method for the in Vitro Diagnosis and Prognosis of Demyelinating Diseases, and for the Development of Drugs Against Demyelinating Diseases” (priority 2003, published 2008)

Tested on: dusp6 gene expression
Test: Differential analysis of dusp6 gene expression in oligodendrocyte cultures with Rat Genome U34 DNA arrays
Assay type: cell-based
Parameters: key to Change: Increases (I); Decreases (D); undergoes No Change (NC); Marginally Increases (MI); Marginally Decreases (MD); key to Detection: Present (P); Absent (A); Marginal (M)
Conditions: for SLR (vs control): Signal Log Ratio (log2); for Signal (dusp6, probe set U42627_at): arrays scaled to total intensity 100; for Change: vs control
Text: Microarrays. The microarrays GeneChip Test 3 (Affymetrix, Santa Clara) were used which allow testing the quality of the RNA prior to the expression analysis with GeneChip Rat Genome U34 set (Affymetrix, Santa Clara), representing 3322 complete gene sequences. The dusp6 gene is represented in the microarray by probe set U42627_at of Affymetrix, which are sense oligonucleotides of 25 nucleotides in length designed on the basis of GeneBank U42627 sequence (Table 1).
Samples. The samples studied corresponded to primary oligodendrocyte cultures obtained from the optic nerve of 12-day old rats. To prevent inter-individual variations, each culture corresponded to a 10-animal cell pool. Treatments were made in duplicate with 10 μM AMPA (α-amino-3-hydroxy-5-methyl-4-isoxazolepropionic acid) or 3 μM kainate. The duration of treatments was 2, 10 and 15 minutes, the cells being collected immediately after treatment in the first two cases and 1 hour after the 15-minute treatment. Treatment for 10 and 15 minutes with AMPA and with kainate causes apoptosis, whereas 2-minute treatment was considered sublethal due to scarce treatment duration. After treatments, the cells were collected in TRIzol® Reagent (Life Technologies) and were stored at −80° C. until total RNA extraction.
The analysis was carried out with total RNA from oligodendrocyte cultures. Each sample corresponded to the mixture of total RNAs from two cultures and were called the following: control: untreated cultured oligodendrocytes ampa 2: oligodendrocytes treated for 2 minutes with 10 μM AMPA and collected after treatment ampa 10: oligodendrocytes treated for 10 minutes with 10 μM AMPA collected after treatment ampa 15: oligodendrocytes treated for 15 minutes with 10 μM AMPA and collected 60 minutes later Kainate 2: oligodendrocytes treated for 2 minutes with 3 μM kainate and collected after treatment Kainate 10: oligodendrocytes treated for 10 minutes with 3 μM kainate and collected after treatment Kainate 15: oligodendrocytes treated for 15 minutes with 3 μM kainate and collected 60 minutes later The total RNA of each one of the cultures was obtained by homogenizing the cells in TRIzol® Reagent (Life Technologies) following the supplier's recommendations. The resulting total RNA was cleaned with the RNeasy Mini kit (QIAGEN) (Chomczynski P. et al., Anal. Biochem., 1987, 162: 156; Chomczynski P., Biotechniques, 1993, 15: 532). 2 μg from each total RNA preparation were used as starting material for the synthesis of biotinylated cRNA with the MessageAmp™ aRNA kit (Ambion).
15 μg of each biotinylated cRNA were fragmented at 94° C. for 35 minutes in a buffer solution containing 40 mM Tris-Acetate (pH 8.1), 100 mM KOAc and 30 mM MgOAc. The fragmented cRNA was mixed with hybridization buffer (10 mM MES, 1M NaCl, 20 mM EDTA, 0.01% Tween 20) and was heated at 99° C. for 5 minutes and subsequently at 45° C. for 5 minutes, to then be loaded into the Affymetrix array. The first array in which hybridization was carried out was Affymetrix Test 3. This array allows testing the quality of the RNA prior to expression analysis in the Affymetrix® GeneChip® Rat Genome U34 set (RG-U34).
For hybridization, the arrays were incubated in a rotary oven at 45° C. for 16 hours and with a constant rotation of 60 rpm.
Washing and staining of each array was carried out in the Affymetrix® Fluidics Station. A washing and staining program was used which included:
The arrays were scanned at 560 nm using a confocal microscope using laser emission (Agilent GeneArray Scanner). Analysis of the intensity readings was carried out with Microarray Suite 5.0 software. To compare the arrays, the latter were scaled to a total intensity of 100.
Differential analysis of the dusp6 gene expression in the oligodendrocytes stimulated with regard to the control was carried out from the array comparison data obtained using the Affymetrix software. […]

[1] = treated 2 minutes (10 μM AMPA or 3 μM kainate), collected after treatment
[2] = treated 10 minutes (10 μM AMPA or 3 μM kainate), collected after treatment
[3] = treated 15 minutes (10 μM AMPA or 3 μM kainate), collected 60 minutes later

With `Cc1onc(O)c1CC(N)C(=O)O` (stereo not drawn) [AMPA, α-amino-3-hydroxy-5-methyl-4-isoxazolepropionic acid] as the compound, how does the “SLR (vs control)” value [1] read?
The value was 0.8.

What about the “SLR (vs control)” value [2] of the same compound?
The value was 1.2.

And the “SLR (vs control)” value [3]?
The value was 2.1.

And the “Ratio (=2^SLR)” value (fold change vs untreated control, treated 2 minutes (10 μM AMPA or 3 μM kainate), collected after treatment)?
Its value is 1.7 fold.

What about the Detection [1] of the same compound?
Its Detection is “P”.

And the “Signal (dusp6, probe set U42627_at)” value [1]?
Its value is 75.3.

And the Detection [2]?
Its Detection is “P”.

What about the “Signal (dusp6, probe set U42627_at)” value [2] of the same compound?
The value was 101.7.

What about the Detection [3] of the same compound?
The Detection was “P”.

What about the “Signal (dusp6, probe set U42627_at)” value [3] of the same compound?
Its value is 149.7.

What about the Change [1] of the same compound?
The Change was “I”.

What about the Change [2] of the same compound?
Its Change is “I”.

What about the Change [3] of the same compound?
The Change was “I”.
